Among the data in ChEMBL document CHEMBL4680157, “Design, synthesis and biological evaluation of novel TRβ selective agonists sustained by ADME-toxicity analysis” (Eur J Med Chem, 2020) are Activity values, retold here.

Data set [1] in a line: Toxicity in F344 rat assessed as reduction in liver and body weight ratio at 50 to 100 ug per 100 g body weight, ig administered daily for 3 days. The format is tissue-based. Particulars: in vivo, po, 72 h, dose 50-100 µg, time 3 day.
The nature of data set [2]: Toxicity in F344 rat assessed as effect on serum triglycerides level at 20 ug per 100 g of body weight, ig administered daily for 3 days (reference value: 86.8 +/- 10.4 mg/dl). Particulars: in vivo, po, 72 h, dose 20 µg, time 3 day.
Data set [3] can be described thus: Toxicity in F344 rat assessed as effect on serum AST/GOT level at 20 ug per 100 g of body weight, ig administered daily for 3 days (reference value: 153 +/- 11 U/L). The following applies: in vivo, po, 72 h, dose 20 µg, time 3 day.
Data set [4] in a line: Toxicity in F344 rat assessed as effect on serum ALT/GPT level at 20 ug per 100 g of body weight, ig administered daily for 3 days (reference value: 46 +/- 4 U/L). The following applies: in vivo, po, 72 h, dose 20 µg, time 3 day.
Data set [5] in a line: Toxicity in F344 rat assessed as effect on serum cholesterol level at 20 ug per 100 g of body weight, ig administered daily for 3 days (reference value: 67.2 +/- 2.5 mg/dl). The following applies: in vivo, po, 72 h, dose 20 µg, time 3 day.
Data set [6] is described as follows: Toxicity in F344 rat assessed as effect on serum bilirubin level at 20 ug per 100 g of body weight, ig administered daily for 3 days (reference value: 1.4 +/- 0.2 mg/dl). Particulars: in vivo, po, 72 h, dose 20 µg, time 3 day.
Data set [7] can be described thus: Toxicity in F344 rat assessed as increase in heart weight at 50 to 100 ug per 100 g body weight, ig administered daily for 3 days. Particulars: in vivo, po, 72 h, dose 50-100 µg, time 3 day.
Data set [8] in a line: Toxicity in F344 rat assessed as effect on serum glucose level at 20 ug per 100 g of body weight, ig administered daily for 3 days (reference value: 151 +/- 13.5 mg/dl). The following applies: in vivo, po, 72 h, dose 20 µg, time 3 day.
Data set [9] is described as follows: Toxicity in F344 rat assessed as increase in heart and body weight ratio at 50 to 100 ug per 100 g body weight, ig administered daily for 3 days. The following applies: in vivo, po, 72 h, dose 50-100 µg, time 3 day.

Consider `N[C@@H](Cc1cc(I)c(Oc2ccc(O)c(I)c2)c(I)c1)C(=O)O` [LIOTHYRONINE], for which the Activity entry in [1] is “Toxic”; in data set [2], 90.2 mg/dL; in data set [3] it was 159 U/L; in [4] it was 53 U/L; in [5], 65.2 mg/dL; in data set [6], 1.4 mg/dL. Besides, the Activity result in data set [7] was “Toxic”; in data set [8] it was 139 mg/dL; in [9], “Toxic”.
